Assay results from PMC8389614, “A Comparison of Acute Pharmacological Effects of Methylone and MDMA Administration in Humans and Oral Fluid Concentrations as Biomarkers of Exposure” (Biology, 2021).
Like-named read-outs stand apart in the source and are kept apart here.

Legend:
[1] = Oral fluid to blood (OF/B) concentration ratio and plasma concentration; details: human, 100 mg
[2] = cited from earlier work; for Median overall OF/B ratio: oral fluid vs plasma
[3] = test system: users; parameters: method as in earlier work; details: cited from earlier work
[4] = test system: CYP2D6; details: limited contribution of CYP1A2, CYP2B6, CYP2C19; cited from earlier work
[5] = oral administration, user reports

Compound	Kp [1]	Maximum oral fluid to blood (OF/B) ratio ([2]; at 1.5 h after a 100 mg dose)	Median overall OF/B ratio ([2]; high dose 1.6 mg/kg)	Median overall OF/B ratio ([2]; low dose 1.0 mg/kg)	Threshold dose ([3]; WHO Expert Committee on Drug Dependence)	Onset of effects after administration [3, 5]	Time of peak effects [3, 5]	Total duration of effects [3, 5]	Enzymes metabolizing the substance in the liver [4]
CNC(C)Cc1ccc2c(c1)OCO2 (stereo not drawn) [MDMA, 3,4-methylenedioxymethamphetamine]	22.4	18.1 ± 7.9	6.0	5.2					
CNC(C)C(=O)c1ccc2c(c1)OCO2 (stereo not drawn) [Methylone, 3,4-methylenedioxymethcathinone]					60 mg	15 to 60 min	60 to 90 min	3 to 5 h	principally by the enzymatic activity of CYP2D6
